Data: patent US6750227B2, “Method of treatment of neuropsychiatric symptoms in patients with Alzheimer's Disease” (SmithKline Beecham Corporation, priority 1998, dated 2004)
Like-named read-outs stand apart in the source and are kept apart here.

Experiments:
[1] = test system: patients with Alzheimer's Disease; details: for Agitation score / Anxiety score / Apathy score / Delusions score / Depression score / Disinhibition score / Elation score / Hallucinations score / Irritability score / Wandering score / Total NPI score: All Patients, negative = improvement; for NPI total score, country adjusted difference vs placebo: all patients
Experimental: A retrospective meta-analysis on the combined data was then conducted and effects on individual symptoms assessed.
Country adjusted differences were calculated as the difference between the adjusted least square means; allowing estimates from each country to be combined in a manner whereby the most precise estimate is given more weight.
Following this analysis, a further retrospective analysis was conducted on the subgroup of patients who presented with severe behavioural disturbance at the start of the study (defined as a baseline NPI score>20). Country adjusted differences were calculated as the difference between the adjusted least square means; allowing estimates from each country to be combined in a manner whereby the most precise estimate is given more weight.

Male Sprague Dawley rats [2] = details: rat, 30 min pretreatment
Male Sprague Dawley rats [3] = test: Catalepsy in the rat; details: 90 min after dosing, doses up to 0.3 mg/kg po
Male Sprague Dawley rats [4] = details: rat, in vivo, 2.8 mg/kg, 90 min
[5] = Patients with baseline NPI >20, 25 μg bid
[6] = Patients with baseline NPI >20, 50 μg uid

Structure (SMILES): CO/N=C(\C#N)[C@H]1CN2CCC1CC2 [Compound (I), [R-(Z)]-α-(methoxyimino)-α-(1-azabicyclo[2.2.2]oct-3-yl)acetonitrile]
- Agitation score ([1]; 25 μg bid): −0.5
- Anxiety score ([1]; 25 μg bid): −0.9
- Apathy score ([1]; 25 μg bid): −1.1
- Delusions score ([1]; 25 μg bid): −0.7
- Depression score ([1]; 25 μg bid): −0.3
- Disinhibition score ([1]; 25 μg bid): −0.7
- Elation score ([1]; 25 μg bid): −1.1
- Hallucinations score ([1]; 25 μg bid): −1.5
- Irritability score ([1]; 25 μg bid): −0.4
- Wandering score ([1]; 25 μg bid): −1.2
- Total NPI score ([1]; 25 μg bid, p 0.064 vs placebo): +0.7
- Agitation score ([1]; 50 μg uid): −0.6
- Anxiety score ([1]; 50 μg uid): −1.5
- Apathy score ([1]; 50 μg uid): −1.5
- Delusions score ([1]; 50 μg uid): −0.6
- Depression score ([1]; 50 μg uid): −0.6
- Disinhibition score ([1]; 50 μg uid): −0.7
- Elation score ([1]; 50 μg uid): −1.9
- Hallucinations score ([1]; 50 μg uid): −0.7
- Irritability score ([1]; 50 μg uid): −0.9
- Wandering score ([1]; 50 μg uid): −1.0
- Total NPI score ([1]; 50 μg uid, p 0.026 vs placebo): +0.3
- Agitation endpoint score: change from baseline [1, 5]: 0
- Anxiety endpoint score: change from baseline [1, 5]: −1.9
- Apathy endpoint score: change from baseline [1, 5]: −1.4
- Delusions endpoint score: change from baseline [1, 5]: −0.8
- Depression endpoint score: change from baseline [1, 5]: 0
- Disinhibition endpoint score: change from baseline [1, 5]: −0.8
- Elation endpoint score: change from baseline [1, 5]: −1.7
- Hallucinations endpoint score: change from baseline [1, 5]: −2.1
- Irritability endpoint score: change from baseline [1, 5]: −0.7
- Wandering endpoint score: change from baseline [1, 5]: −1.7
- Total NPI endpoint score: change from baseline ([1]; Patients with baseline NPI >20, 25 μg bid, p 0.043 vs placebo): −4.0
- Agitation endpoint score: change from baseline [1, 6]: −0.6
- Anxiety endpoint score: change from baseline [1, 6]: −1.8
- Apathy endpoint score: change from baseline [1, 6]: −1.6
- Delusions endpoint score: change from baseline [1, 6]: −1.4
- Depression endpoint score: change from baseline [1, 6]: −1.1
- Disinhibition endpoint score: change from baseline [1, 6]: −1.1
- Elation endpoint score: change from baseline [1, 6]: −2.5
- Hallucinations endpoint score: change from baseline [1, 6]: −1.4
- Irritability endpoint score: change from baseline [1, 6]: −1.2
- Wandering endpoint score: change from baseline [1, 6]: −1.3
- Total NPI endpoint score: change from baseline ([1]; Patients with baseline NPI >20, 50 μg uid, p 0.019 vs placebo): −6.1
- NPI total score, country adjusted difference vs placebo ([1]; 50 μg uid, p=0.026, 95% CI −4.1, −0.3): −2.1
- NPI total score, country adjusted difference vs placebo ([1]; 25 kg bid (so in the source), p=0.064, 95% CI −3.8, 0.1): −1.8
- total NPI score, country adjusted difference vs placebo ([1]; patients with baseline NPI>20, 25 μg bid, p=0.043, 95% CI −14.1, −0.2): −7.18
- total NPI score, country adjusted difference vs placebo ([1]; patients with baseline NPI>20, 50 μg uid, p=0.019, 95% CI −14.4, −1.3): −7.86
- dose at which reversal of amphetamine-induced hyperactivity reached significance (P<0.01) (Male Sprague Dawley rats [2]; 0.01-0.3 mg/kg po): 0.3 mg/kg
- ED50 for reversal of amphetamine-induced hyperactivity (Male Sprague Dawley rats [2]; po, 95% CI=0.14-0.75): 0.25 mg/kg
- catalepsy (Male Sprague Dawley rats [3]): did not produce catalepsy

Structure (SMILES): O=C(CCCN1CCC(O)(c2ccc(Cl)cc2)CC1)c1ccc(F)cc1 [haloperidol, Haloperidol]
- rats in which catalepsy was produced (Male Sprague Dawley rats [4]): 6 of 6
